Test results reported in US20170304286A1 (LAUNX BIOMEDICAL CO., LTD., priority 2014, published 2017).
Where two headings read alike, the source gives them in different places.

How the values were obtained:
Type in all cases: cell-based
[1] = tested on: A549 (lung adenocarcinoma); test: WST-1 cell viability, lung cancer cell line A549; conditions: Homo sapiens
Method: (§1) The cell numbers were counted and reseed as 2×10^6 in culture plate/flask. Then, the culture medium were added to a volume of 10 ml, and the cells were cultured for 2-3 days. Then, the cells were suspended for loading into 96-well plates. The number of cells was 3000 and the volume of the culture medium was 100 μl each well.
(§2) Removing the original culture medium from 96-well plate. Then add 100 μl of commercially drug at a concentration of 10 μM per well. After 72 hours, add the diluted WST-1 reagent to the well with 100 μl/well, and the diluted WST-1 reagent was acquired from the dilution of 9:1 medium and WST-1 stock reagent. Finally, the total volume of each well was 200 μl/well. Culture the 96-well plate at 37° C. for 30 to 90 minutes. Detecting and calculate the survival rate of each cancer cells with an ELISA reader at OD450 nm.

TOV-21G = test: WST-1 cell viability, ovarian cancer cell line TOV-21G; conditions: Homo sapiens, TOV21G, 72 h
Method: as §1, §2

normal cells = test: Toxicity to normal cells (cell viability)
Description: Subculture the different types of cancer cells. The cancer cells includes lung cancer, gastric cancer, hepatic cancer, colon cancer, skin cancer, cervical cancer, prostate cancer, bladder cancer, breast cancer, leukemia, pancreatic cancer, ovarian cancer, tongue cancer, osteosarcoma, and renal cancer. The normal cells used in the control group included kidney cells (HEK293), canine fibroblast cell line HFW, and human bronchial epithelial cell line BEAS-2B.
as §2

[2] = tested on: BCC (basal cell carcinoma); test: WST-1 cell viability, skin cancer cell line BCC; conditions: 72 h
Method: as §1, §2

NIH-OVCAR-3 = test: WST-1 cell viability, ovarian cancer cell line NIH-OVCAR-3; conditions: Homo sapiens
Method: as §1, §2

[3] = tested on: MDA-MB-231 (Mammary Gland, Adenocarcinoma); test: WST-1 cell viability, breast cancer cell line MDA-MB-231; conditions: Homo sapiens
Method: as §1, §2

hepatic cancer cells = test: Summary of cell viability, hepatic cancer; conditions: 72 h, read-out: Inhibitory effect
Method: as §2

gastric cancer cells = test: Summary of cell viability, gastric cancer; conditions: gastriccancer, 72 h, read-out: Inhibitory effect
Method: as §2

[4] = tested on: AGS (Gastric Adenocarcinoma); test: WST-1 cell viability, gastric cancer cell line AGS; conditions: 72 h
Method: as §1, §2

various cancer cells = test: Inhibitory effect on various cancer cells (cell viability); conditions: Table 18, FIG. 1
Description: Subculture the different types of cancer cells. The cancer cells includes lung cancer, gastric cancer, hepatic cancer, colon cancer, skin cancer, cervical cancer, prostate cancer, bladder cancer, breast cancer, leukemia, pancreatic cancer, ovarian cancer, tongue cancer, osteosarcoma, and renal cancer. The normal cells used in the control group included kidney cells (HEK293), canine fibroblast cell line HFW, and human bronchial epithelial cell line BEAS-2B. Removing the original culture medium from 96-well plate. […] After 72 hours, add the diluted WST-1 reagent to the well with 100 μl/well, and the diluted WST-1 reagent was acquired from the dilution of 9:1 medium and WST-1 stock reagent. […] Culture the 96-well plate at 37° C. for 30 to 90 minutes. Detecting and calculate the survival rate of each cancer cells with an ELISA reader at OD450 nm. […] (FIG. 1)

[5] = tested on: SAS (Tongue squamouscell carcinoma); test: WST-1 cell viability, tongue cancer cell line SAS; conditions: 72 h
Method: as §1, §2

skin cancer cells = test: Summary of cell viability, skin cancer; conditions: 72 h, read-out: Inhibitory effect
Method: as §2

[6] = tested on: A375 (amelanotic melanoma); test: WST-1 cell viability, skin cancer cell line A375; conditions: Homo sapiens
Method: as §1, §2

colorectal cancer cells = test: Summary of cell viability, colorectal cancer; conditions: 72 h, read-out: Inhibitory effect
Method: as §2

T24 = test: WST-1 cell viability, bladder cancer cell line T24; conditions: Homo sapiens
Method: as §1
Removing the original culture medium from 96-well plate. Then add 100 μl of commercially drug at a concentration of 10 μM per well. After 72 hours, add the diluted WST-1 reagent to the well with 100 μl/well, and the diluted WST-1 reagent was acquired from the dilution of 9:1 medium and WST-1 stock reagent. Finally, the total volume of each well was 200 μl/well. […] Detecting and calculate the survival rate of each cancer cells with an ELISA reader at OD450 nm.

[7] = tested on: Hep3B (hepatocellular carcinoma); test: WST-1 cell viability, hepatic cancer cell line Hep3B; conditions: Homo sapiens, 72 h
Method: as §1, §2

[8] = average of 4 tests, read-out: survival rate (inhibition effect), Average

Fc1ccc([C@@H]2CCNC[C@H]2COc2ccc3c(c2)OCO3)cc1 [Paroxetine]
viability at 10 µM ([1]; A549, 72 h, A549, average of 4 tests, read-out: survival rate (inhibition effect), Average): 92.4% | viability at 10 µM ([1]; A549, A549, 72 h, run 0524-10 min, read-out: survival rate (inhibition effect)): 84.2% | viability at 10 µM ([1]; A549, A549, 72 h, run 0526-10 min, read-out: survival rate (inhibition effect)): 127% | viability at 10 µM ([1]; A549, A549, 72 h, run 0529-10 min, read-out: survival rate (inhibition effect)): 54% | viability at 10 µM ([1]; A549, A549, 72 h, run 0531-10 min, read-out: survival rate (inhibition effect)): 104% | viability at 10 µM (TOV-21G; [8]): 87.1% | viability at 10 µM (TOV-21G; run 4-30 min, read-out: survival rate (inhibition effect)): 86.1% | viability at 10 µM (TOV-21G; run 7-3-30 min, read-out: survival rate (inhibition effect)): 93.5% | viability at 10 µM (TOV-21G; run 7-4-30 min, read-out: survival rate (inhibition effect)): 79.7% | viability at 10 µM (TOV-21G; run 7-7-30 min, read-out: survival rate (inhibition effect)): 89.2% | toxicity to normal cells (normal cells): no toxicity or had little toxicity | viability at 10 µM [2, 8]: 58.2% | viability at 10 µM ([2]; run 0602-30 min, read-out: survival rate (inhibition effect)): 42.1% | viability at 10 µM ([2]; run 0605-10 min, read-out: survival rate (inhibition effect)): 52.6% | viability at 10 µM ([2]; run 0607-10 min, read-out: survival rate (inhibition effect)): 41.1% | viability at 10 µM ([2]; run 0609-10 min, read-out: survival rate (inhibition effect)): 97% | viability at 10 µM (NIH-OVCAR-3; OVCAR-3, 72 h, NIH-OVCAR-3, average of 4 tests, read-out: survival rate (inhibition effect), Average): 86% | viability at 10 µM (NIH-OVCAR-3; OVCAR-3, NIH-OVCAR-3, 72 h, run 7-3-30 min, read-out: survival rate (inhibition effect)): 80.2% | viability at 10 µM (NIH-OVCAR-3; OVCAR-3, NIH-OVCAR-3, 72 h, run 7-4-30 min (fourth column), read-out: survival rate (inhibition effect)): 97.8% | viability at 10 µM (NIH-OVCAR-3; OVCAR-3, NIH-OVCAR-3, 72 h, run 7-4-30 min (second column), read-out: survival rate (inhibition effect)): 81.9% | viability at 10 µM (NIH-OVCAR-3; OVCAR-3, NIH-OVCAR-3, 72 h, run 7-7-30 min, read-out: survival rate (inhibition effect)): 83.9% | viability at 10 µM ([3]; MDA-MB-231, 72 h, MDA-MB-231, average of 4 tests, read-out: survival rate (inhibition effect), Average): 41.8% | viability at 10 µM ([3]; MDA-MB-231, MDA-MB-231, 72 h, run 0612-10 min, read-out: survival rate (inhibition effect)): 47.9% | viability at 10 µM ([3]; MDA-MB-231, MDA-MB-231, 72 h, run 0614-10 min, read-out: survival rate (inhibition effect)): 35.9% | viability at 10 µM ([3]; MDA-MB-231, MDA-MB-231, 72 h, run 0616-10 min, read-out: survival rate (inhibition effect)): 42% | viability at 10 µM ([3]; MDA-MB-231, MDA-MB-231, 72 h, run 0619-10 min, read-out: survival rate (inhibition effect)): 41.2% | viability at 10 µM (hepatic cancer cells): 60.1% | viability at 10 µM (gastric cancer cells): 26.3% | viability at 10 µM [4, 8]: 12.2% | viability at 10 µM ([4]; run 0510-10 min, read-out: survival rate (inhibition effect)): 12% | viability at 10 µM ([4]; run 0512-10 min, read-out: survival rate (inhibition effect)): 11.1% | viability at 10 µM ([4]; run 0515-10 min, read-out: survival rate (inhibition effect)): 12.7% | viability at 10 µM ([4]; run 0517-10 min, read-out: survival rate (inhibition effect)): 12.8% | inhibitory effect on several cancer cell lines (various cancer cells): significant inhibitory effect | viability at 10 µM ([5]; SAS, average of 4 tests, read-out: survival rate (inhibition effect), Average): 51.5% | viability at 10 µM ([5]; summary, tongue cancer, read-out: Inhibitory effect): 51.5% | viability at 10 µM ([5]; SAS, run 6-26-10 min, read-out: survival rate (inhibition effect)): 48.2% | viability at 10 µM ([5]; SAS, run 6-28-10 min, read-out: survival rate (inhibition effect)): 26.7% | viability at 10 µM ([5]; SAS, run 6-30-10 min, read-out: survival rate (inhibition effect)): 58% | viability at 10 µM ([5]; SAS, run 7-3-10 min, read-out: survival rate (inhibition effect)): 73.1% | viability at 10 µM (skin cancer cells): 51% | viability at 10 µM ([6]; A-375, 72 h, A375, average of 4 tests, read-out: survival rate (inhibition effect), Average): 43.8% | viability at 10 µM ([6]; A-375, A375, 72 h, run 0602-30 min, read-out: survival rate (inhibition effect)): 46.8% | viability at 10 µM ([6]; A-375, A375, 72 h, run 0605-10 min, read-out: survival rate (inhibition effect)): 44.4% | viability at 10 µM ([6]; A-375, A375, 72 h, run 0607-10 min, read-out: survival rate (inhibition effect)): 35.4% | viability at 10 µM ([6]; A-375, A375, 72 h, run 0609-10 min, read-out: survival rate (inhibition effect)): 48.8% | viability at 10 µM (colorectal cancer cells): 43.2% | viability at 10 µM (T24; T-24, 72 h, T24, average of 4 tests, read-out: survival rate (inhibition effect), Average): 99.9% | viability at 10 µM (T24; T-24, T24, 72 h, run 1-30 min, read-out: survival rate (inhibition effect)): 112% | viability at 10 µM (T24; T-24, T24, 72 h, run 2-20 min, read-out: survival rate (inhibition effect)): 85.2% | viability at 10 µM (T24; T-24, T24, 72 h, run 3-20 min, read-out: survival rate (inhibition effect)): 102% | viability at 10 µM (T24; T-24, T24, 72 h, run 4-20 min, read-out: survival rate (inhibition effect)): 102% | viability at 10 µM [7, 8]: 66.1% | viability at 10 µM ([7]; run 0612-20 min, read-out: survival rate (inhibition effect)): 69.8% | viability at 10 µM ([7]; run 0614-20 min, read-out: survival rate (inhibition effect)): 67.4% | viability at 10 µM ([7]; run 0616-20 min, read-out: survival rate (inhibition effect)): 66.2% | viability at 10 µM ([7]; run 0619-20 min, read-out: survival rate (inhibition effect)): 60.9%
